Data taken from PubChem BioAssay (NCI).
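Interpolation was linear, between the two tested concentrations surrounding the appropriate level; five concentrations were tested over 48 hours in 96-well plates. The concentration for 50% growth inhibition is given as GI50. TGI: concentration producing complete growth inhibition.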

Assays:
Assay in all cases: growth of human tumour cells (NCI), 48 h
[1] = tested on: KM12 colon
[2] = tested on: A498 renal
[3] = tested on: SW-620 colon
[4] = tested on: U251 CNS
[5] = tested on: SN12C renal
[6] = tested on: SF-268 CNS
[7] = tested on: CCRF-CEM leukemia
[8] = tested on: TK-10 renal
[9] = tested on: K-562 leukemia
[10] = tested on: PC-3 prostate
[11] = tested on: SK-MEL-2 melanoma
[12] = tested on: MCF7 breast
[13] = tested on: NCI-H460 lung
[14] = tested on: ACHN renal
[15] = tested on: SR leukemia
[16] = tested on: SNB-19 CNS
[17] = tested on: MALME-3M melanoma
[18] = tested on: NCI-H226 lung
[19] = tested on: BT-549 breast
[20] = tested on: UACC-257 melanoma
[21] = tested on: HCC-2998 colon
[22] = tested on: SF-539 CNS
[23] = tested on: SNB-75 CNS
[24] = tested on: RPMI-8226 leukemia
[25] = tested on: EKVX NSCLC
[26] = tested on: HT29 colon
[27] = tested on: SK-MEL-28 melanoma
[28] = tested on: HOP-92 NSCLC
[29] = tested on: SF-295 CNS
[30] = tested on: OVCAR-4 ovarian
[31] = tested on: DU-145 prostate
[32] = tested on: OVCAR-5 ovarian
[33] = tested on: HL-60(TB) leukemia
[34] = tested on: T-47D breast
[35] = tested on: LOX IMVI melanoma
[36] = tested on: MDA-MB-231 breast
[37] = tested on: HCT-15 colon
[38] = tested on: RXF 393 renal
[39] = tested on: IGROV1 ovarian
[40] = tested on: M14 melanoma
[41] = tested on: NCI-H522 lung
[42] = tested on: UO-31 renal
[43] = tested on: 786-0 renal
[44] = tested on: HS 578T breast
[45] = tested on: UACC-62 melanoma
[46] = tested on: OVCAR-8 ovarian
[47] = tested on: SK-MEL-5 melanoma
[48] = tested on: NCI-H23 lung
[49] = tested on: A549 NSCLC
[50] = tested on: HOP-62 NSCLC
[51] = tested on: OVCAR-3 ovarian
[52] = tested on: NCI/ADR-RES ovarian
[53] = tested on: HCT-116 colon
[54] = tested on: MOLT-4 leukemia
[55] = tested on: COLO 205 colon
[56] = tested on: MDA-MB-435
[57] = tested on: SK-OV-3 ovarian

Structure (SMILES): COc1ccc2c(c1OC)OC[C@@H](C1=CC(=O)C=C(O)C1=O)C2
- TGI [1]: 27.5 µM
- TGI [2]: 32.1 µM
- TGI [3]: 26.2 µM
- TGI [4]: 24.5 µM
- TGI [5]: 37 µM
- TGI [6]: 38.1 µM
- TGI [7]: 3.81 µM
- TGI [8]: 27.3 µM
- TGI [9]: 11.8 µM
- TGI [10]: 26.8 µM
- TGI [11]: 29 µM
- TGI [12]: 27 µM
- TGI [13]: 27.4 µM
- TGI [14]: 11.3 µM
- TGI [15]: 19.2 µM
- TGI [16]: 34.7 µM
- TGI [17]: 24.7 µM
- TGI [18]: 46.7 µM
- TGI [19]: 26 µM
- TGI [20]: 26.1 µM
- TGI [21]: 32.3 µM
- TGI [22]: 26.8 µM
- TGI [23]: 23.6 µM
- TGI [24]: 5.18 µM
- TGI [25]: 18.3 µM
- TGI [26]: 55.8 µM
- TGI [27]: > 58.5 µM
- TGI [28]: 4.12 µM
- TGI [29]: 30.7 µM
- TGI [30]: 24.1 µM
- TGI [31]: 29.3 µM
- TGI [32]: 40 µM
- TGI [33]: 1.88 µM
- TGI [34]: 20.3 µM
- TGI [35]: 13.1 µM
- TGI [36]: 10.4 µM
- TGI [37]: 31 µM
- TGI [38]: 19.1 µM
- TGI [39]: 25.2 µM
- TGI [40]: 26.8 µM
- TGI [41]: 8.9 µM
- TGI [42]: 25.9 µM
- TGI [43]: 16.9 µM
- TGI [44]: 60.1 µM
- TGI [45]: 25.1 µM
- TGI [46]: 69.3 µM
- TGI [47]: 27 µM
- TGI [48]: 33.8 µM
- TGI [49]: 35.8 µM
- TGI [50]: 64.5 µM
- TGI [51]: 26.3 µM
- TGI [52]: 79.1 µM
- TGI [53]: 17.4 µM
- TGI [54]: 5.31 µM
- TGI [55]: 43.3 µM
- TGI [56]: 23.9 µM
- TGI [57]: 30.3 µM

Structure (SMILES): CCCCCCCCCCCCCCCC(=O)Nc1ccn([C@@H]2O[C@H](CO)[C@@H](O)[C@@H]2C#N)c(=O)n1
- GI50 [1]: 33.7 µM
- TGI [1]: > 100 µM
- GI50 [2]: > 82 µM
- TGI [2]: > 100 µM
- GI50 [3]: 26.7 µM
- TGI [3]: > 100 µM
- GI50 [4]: 20.8 µM
- TGI [4]: > 100 µM
- GI50 [5]: 29.7 µM
- TGI [5]: > 100 µM
- GI50 [6]: 30.4 µM
- TGI [6]: > 100 µM
- TGI [7]: > 100 µM
- GI50 [8]: > 100 µM
- TGI [8]: > 100 µM
- GI50 [9]: 14.6 µM
- TGI [9]: > 52.4 µM
- GI50 [10]: 35.9 µM
- TGI [10]: > 100 µM
- GI50 [11]: 42.3 µM
- TGI [11]: > 100 µM
- GI50 [12]: 3.29 µM
- TGI [12]: 30 µM
- GI50 [13]: 2.38 µM
- TGI [13]: 24.5 µM
- GI50 [14]: 8.76 µM
- TGI [14]: > 100 µM
- GI50 [15]: 8.01 µM
- TGI [15]: 98.1 µM
- GI50 [16]: 6.02 µM
- TGI [16]: > 100 µM
- GI50 [17]: 17.3 µM
- TGI [17]: 60.4 µM
- GI50 [18]: 30.7 µM
- TGI [18]: > 100 µM
- GI50 [19]: 34.9 µM
- TGI [19]: > 100 µM
- GI50 [20]: 46.3 µM
- TGI [20]: > 100 µM
- GI50 [21]: 14.5 µM
- TGI [21]: > 100 µM
- GI50 [22]: > 100 µM
- TGI [22]: > 100 µM
- GI50 [23]: > 58.6 µM
- TGI [23]: > 100 µM
- GI50 [24]: 49.8 µM
- TGI [24]: > 100 µM
- GI50 [25]: > 52.7 µM
- TGI [25]: > 100 µM
- GI50 [26]: 35.8 µM
- TGI [26]: > 100 µM
- GI50 [27]: 33.1 µM
- TGI [27]: > 100 µM
- GI50 [28]: 5.52 µM
- TGI [28]: > 100 µM
- GI50 [29]: 21.5 µM
- TGI [29]: > 100 µM
- GI50 [30]: 36.4 µM
- TGI [30]: > 100 µM
- GI50 [31]: 9.03 µM
- TGI [31]: > 100 µM
- GI50 [32]: 51.6 µM
- TGI [32]: > 100 µM
- GI50 [33]: 21.1 µM
- TGI [33]: > 100 µM
- GI50 [34]: 33.2 µM
- TGI [34]: > 88.7 µM
- GI50 [35]: 10.2 µM
- TGI [35]: 37.9 µM
- GI50 [36]: 25.9 µM
- TGI [36]: > 96.4 µM
- GI50 [37]: 50.8 µM
- TGI [37]: > 100 µM
- GI50 [38]: > 77.9 µM
- TGI [38]: > 100 µM
- GI50 [39]: 33.9 µM
- TGI [39]: > 100 µM
- GI50 [40]: 11.8 µM
- TGI [40]: > 83.6 µM
- GI50 [41]: 13.1 µM
- TGI [41]: 33.3 µM
- GI50 [42]: 14.5 µM
- TGI [42]: > 100 µM
- GI50 [43]: 10.1 µM
- TGI [43]: > 100 µM
- GI50 [44]: > 100 µM
- TGI [44]: > 100 µM
- GI50 [45]: 17.2 µM
- TGI [45]: > 100 µM
- GI50 [46]: 15.4 µM
- TGI [46]: > 100 µM
- GI50 [47]: 15.2 µM
- TGI [47]: 28.8 µM
- GI50 [48]: 12 µM
- TGI [48]: > 84.5 µM
- GI50 [49]: 11.7 µM
- TGI [49]: 30.3 µM
- GI50 [50]: 20.5 µM
- TGI [50]: > 100 µM
- GI50 [51]: > 100 µM
- TGI [51]: > 100 µM
- GI50 [52]: 18.4 µM
- TGI [52]: > 100 µM
- GI50 [53]: 4.77 µM
- TGI [53]: > 80.6 µM
- TGI [54]: 26.2 µM
- GI50 [55]: 17.6 µM
- TGI [55]: > 100 µM
- GI50 [56]: 39.5 µM
- TGI [56]: > 100 µM
- GI50 [57]: 45.6 µM
- TGI [57]: > 100 µM
